Broadly, the melting point is the temperature, or range, at which the solid turns liquid.

`CCC(c1oc2ccccc2c(=O)c1-c1ccc(F)cc1)n1cnc2c(N)ncnc21` (stereo unspecified) yielded a melting point of 223 to 227 °C.

`C[C@]12C[C@H](c3ccc(OCCCCCS(=O)CCCC(F)(F)C(F)(F)F)cc3)[C@@H]3c4ccc(OC5CCCC5)cc4CC[C@H]3[C@@H]1CC[C@@H]2O` (stereo partly specified) returned a melting point of 189 °C.

Consider `CN1CC(CNC(=N)NC(=O)c2cccnc2)CC2c3cccc4c3c(cn4C)CC21` (stereo unspecified), for which the melting point fell in the range of 207 to 209 °C.

In turn, `CCc1ncnc(NC(CC)c2ccc(Oc3c(F)c(F)c(C(F)(F)F)c(F)c3F)cc2)c1Cl` (stereo unspecified) had a melting point of 58 to 61 °C.

`Cc1ccc2c(NCc3ccc(NC(=O)c4ccc(C)nc4)cc3)nc(Cl)nc2c1` showed a melting point of 257 to 259 °C.

In turn, `N#CNC(=Nc1ccncc1)NCCOc1ccc(Cl)cc1` came in with a melting point of 174 to 177 °C.

Molecule `CCOC(=O)c1ccc(-c2nn(Cc3ccc(Cl)s3)c3ccccc23)o1` yielded a melting point of 124 to 126 °C.

`Cc1ccc(C)c(S(=O)(=O)n2c(CCCC(=O)O)cc3nc(Cl)ccc32)c1` displayed a melting point of 106 to 117 °C.

Take `O=C(CCc1cccc2c1NC(=O)CO2)CCc1cccc2c1NC(=O)CO2`: the melting point fell in the range of 183 to 185 °C.

As to `Cc1ccc(NC(=O)N(C)Cc2cccc3c2CN(C2CCC(=O)NC2=O)C3=O)cc1C` (stereo unspecified), the melting point lay within 228 to 230 °C.

Regarding `CC=CCNc1cc(C(=O)O)cc(S(N)(=O)=O)c1Oc1cccc(NC(C)=O)c1`, the melting point lay within 198 to 202 °C.

Molecule `Cc1cc(C(O)(CNC(=O)c2ccc(Cl)cc2)C(F)(F)F)ccc1NC(=O)OC(C)(C)C` (stereo unspecified) yielded a melting point of 160 to 162 °C.

On to `Cc1c(NC(=O)C(CS)Cc2ccccc2)cccc1C(=O)O` (stereo unspecified), for which the melting point lay in the range of 179 to 181 °C.

Regarding `COc1cc(Cl)ccc1CCl`, the melting point fell in the range of 43 to 45 °C.

`CC(=NNc1ccc(C2=NNC(=O)CC2)cc1)c1cnccn1` displayed a melting point of 197 to 202 °C.

The molecule `N#Cc1ccc2c(c1)OC(c1ccccc1)(c1ccccc1)O2` came in with a melting point of 106 to 107 °C.

Turning to `CCCCOCCOc1ccc(-c2ccc3c(c2)C=C(C(=O)Nc2ccc(SCc4nncn4CCC)c(C)c2)CCN3CC(C)C)cc1`, the melting point fell in the range of 104 to 107 °C.

`Cc1nc2c([N+](=O)[O-])cc(S(=O)(=O)N(C)C)cc2n1C` came in with a melting point of 194 to 196 °C.

As to `O=c1c(Br)cc(Cl)cn1Cc1ccccc1`, the melting point is 108 to 110 °C.

With `CCOC(=O)CC12CC(c3ccccc31)c1ccccc12`, the melting point was in the range of 81 to 84 °C.

`COc1ccc(C(=O)c2cccc3c2CCC3C(N)=O)cc1` (stereo unspecified) came in with a melting point of 164 to 166 °C.

On to `CCN(CC)c1ccc(-n2c(CC(=O)O)c(C(=O)O)c3cc(Oc4cccc(Cl)c4)ccc32)cc1`, for which the melting point was in the range of 186 to 191 °C.

In the case of `CCC(CC)c1nn(-c2ccc(Cl)cn2)cc1CCCO`, the melting point was 62 to 63 °C.

`CCCCNC(=O)Cc1ccc(O)c(C2CCCCC2)c1` had a melting point of 118 to 120 °C.

Turning to `CC(=O)CSc1nnnn1C`, the melting point turned out to be 31 °C.

Turning to `CCOCCc1c(N=[N+]=[N-])nc(NC(=O)NCC(=O)OCC)nc1-c1ccccc1`, the melting point turned out to be 130 °C.

Take `O=C(CNC(=O)c1ccc([N+](=O)[O-])cc1[N+](=O)[O-])OCc1ccccc1`: the melting point is 116 to 118 °C.

For the molecule `O=C1NC(=O)C2(c3ccc4ccc(O)nc4n3)C=CC=CC12` (stereo unspecified), the melting point is 370 °C.

With `CCOC(=O)c1cccc2c3c([nH]c12)CN(CC(=O)NC(C(=O)C(F)(F)F)C(C)C)C=C3` (stereo unspecified), the melting point lay in the range of 218 to 219 °C.

For the molecule `Cc1ccc2c(CCN)c[nH]c2c1C`, the melting point is 171 to 173 °C.

On to `Cc1ccc(-n2c(-c3ccccc3)c(Br)c(Br)c2-c2ccccc2)cc1`, for which the melting point fell in the range of 227 to 228 °C.

In turn, `COc1cc(Cl)cc(C)c1Nc1nc2c(Cl)ccc(C(=C(C)C)C(C)C)c2n1C` came in with a melting point of 166 to 168 °C.

In turn, `CC(Cc1c[nH]c2ccccc12)(NC(=O)OC1C2CC3CC(C2)CC1C3)C(=O)NC(CC(=O)O)Cc1ccc(N)cc1` (stereo unspecified) gave a melting point of 115 to 120 °C.

Molecule `CCCN(CCC)c1c([N+](=O)[O-])cc(C#N)c(C)c1[N+](=O)[O-]` returned a melting point of 97 to 99 °C.

For `CCCCc1nc(NC(=N)N)sc1-c1cccc([N+](=O)[O-])c1`, the melting point lay within 140 to 142 °C.

In turn, `N#Cc1ccc(C(O)CCN2CC=C(c3ccc(Cl)cc3)CC2)cc1` (stereo unspecified) came in with a melting point of 117 to 118 °C.

In the case of `COc1nc(C(F)(F)F)cc(=O)n1-c1cc(OCCON=C(C)C)c(Cl)cc1F`, the melting point was in the range of 136 to 138 °C.

In turn, `COc1cc(CC(C#N)=CNc2ccccc2)cc(OC)c1NC=O` displayed a melting point of 186 to 187 °C.

As for `c1ccc(-c2nn3c(c2-c2cncc4cccnc24)CCC3)nc1`, the melting point lay in the range of 180 to 184 °C.

The molecule `CC#CCOc1ccc(S(=O)(=O)NC2(C(=O)OC)CCCC2)cc1` yielded a melting point of 81 to 83 °C.

Turning to `O=c1[nH]c(=O)n(Cc2ccc(OCCc3coc(-c4ccccc4)n3)cc2)[nH]1`, the melting point was 224 to 230 °C.

The molecule `COc1ccc(C2CC(c3ccccc3)=NN2c2ccc(S(N)(=O)=O)cc2)cc1` (stereo unspecified) returned a melting point of 111 °C.

`O=C1CC2c3c(Br)cccc3CCC23OCC(c2ccccc2)N13` (stereo unspecified) gave a melting point of 123 to 126 °C.

On to `CCCC(c1ccc(C(N)=O)cc1)n1ccnc1` (stereo unspecified), for which the melting point is 132 °C.

On to `COc1ccc(C(O)(c2ccc(OC)cc2)C2CCN(CCC3CN(C)C(=O)O3)CC2)cc1` (stereo unspecified), for which the melting point fell in the range of 145 to 147 °C.

Molecule `CCOC(=O)C(C(=O)Nc1nccs1)C(=O)c1cccc(C(F)(F)F)c1NC(=O)C(Cl)C(C)C` (stereo unspecified) showed a melting point of 160 °C.

In turn, `O=C(O)C1=Cc2cc(Cl)c(Cl)cc2OC1C(F)(F)F` (stereo unspecified) displayed a melting point of 196 to 198 °C.

As for `CC(C)(C)C(=O)CN1C(=O)C(NC(=O)Nc2cccc(C(=O)NS(C)(=O)=O)c2)CN(c2ccccc2)c2ccccc21` (stereo unspecified), the melting point was 229 to 233 °C.

Turning to `COC(=O)CC(=O)CN1C(=O)c2ccccc2C1=O`, the melting point lay within 139 to 140 °C.

Turning to `CCN1C(=O)Cc2cc(C(=O)c3ccccc3)ccc21`, the melting point fell in the range of 134 to 136 °C.

In turn, `CN1Cc2c(N)ncn2-c2ccccc2C1=O` registered a melting point of 202 to 204 °C.

Turning to `COc1cc(-c2ccnc(-c3cn(C)c(=O)n3-c3ccc(C(C)(C)C#N)cc3)c2)ccn1`, the melting point was 138 °C.

In turn, `Cc1c(CC(=O)N[C@@H](CO)C(=O)O)cc(-c2ccc(S(C)(=O)=O)cc2)n1-c1ccccc1` displayed a melting point of 80 to 83 °C.

Molecule `CC(C)(C)OC(=O)NCCCCC(=O)Nc1cccc(C(=O)O)c1` gave a melting point of 188 °C.

Molecule `Cc1ccc(NCCN(C)C)c([N+](=O)[O-])c1` displayed a melting point of 59 °C.

Take `COc1ccc2cc3ncc(C#N)c(Cl)c3cc2c1`: the melting point fell in the range of 242 to 243 °C.

`COC(=O)CN(Cc1ccccc1N)S(=O)(=O)c1ccc(OC)cc1` returned a melting point of 100 to 102 °C.

The molecule `COc1ccc(CNn2c(=O)ccc3cnc(SC)nc32)cc1Cl` had a melting point of 189 to 190 °C.

Regarding `COc1cc(-c2csc(-c3ccccc3)n2)cc2oc(=O)c(C)c(C)c12`, the melting point lay in the range of 152 to 154 °C.

In the case of `COc1cc(C(=O)CCCc2ccccc2)ccc1O`, the melting point lay within 91 to 92 °C.

Take `O=C1N(CC2CCCO2)c2cccc(Br)c2C12COc1cc3c(cc12)CCO3` (stereo unspecified): the melting point was 137 to 141 °C.

In turn, `COc1c(-c2cc3c(s2)CCC(CO)C3)ccc2c(=O)c(C(=O)O)cn(C3CC3)c12` (stereo unspecified) yielded a melting point of 218 to 219 °C.

For `O=C(Nc1ccc(-c2ccccc2)cc1C(=O)O)OCc1ccc(-c2ccccc2)cc1`, the melting point is 234 to 236 °C.

The molecule `Cc1ccc(CN2C(=O)C3(COc4cc5c(cc43)OCO5)c3ccccc32)o1` (stereo unspecified) returned a melting point of 117 to 119 °C.

Consider `O=C1CC(C(F)(F)F)CC(=O)N1c1cc(OCSc2ccccc2)c(Cl)cc1F`, for which the melting point fell in the range of 108 to 110 °C.

Molecule `CCOC(=O)Cc1nn(CC(=S)Nc2cc(C(F)(F)F)ccc2Br)c(=O)c2ccccc12` gave a melting point of 160 °C.

The molecule `O=C(O)COc1cc(F)c(-c2ccccc2)cc1C(=O)NCc1cccc([N+](=O)[O-])c1` gave a melting point of 210 to 211 °C.

Consider `Cc1ccc2c(c1)N=C(N1CCN(C)CC1)c1cccc3ccn-2c13`, for which the melting point lay within 202 to 204 °C.

Turning to `Cc1c(O)c(C)c2nc(COc3ccc(CC4SC(=O)NC4=O)cc3)n(C)c2c1C` (stereo unspecified), the melting point lay in the range of 240 to 244 °C.

In turn, `CCC(=O)n1nc(-c2cc(C(C)(C)C)c(O)c(C(C)(C)C)c2)c2cccnc21` displayed a melting point of 184 to 185 °C.

On to `CC(C)(C)OC(=O)N1c2ncc(Br)cc2C=CC1N` (stereo unspecified), for which the melting point is more than 230 °C.

`CCCC(=O)C(=CNc1cscc1OC)C(=O)OCC`: the melting point is 89 to 91 °C.

`Clc1ccc(C2=CCN(CCCCn3cncn3)CC2)cc1` gave a melting point of 101 to 103 °C.

As for `CC(C)SC(=S)N1Cc2[nH]c3ccccc3c2CC1C(=O)O` (stereo unspecified), the melting point was 188 to 190 °C.

The molecule `C1=C(c2cccc3ccccc23)CCN(Cc2ccccc2)C1` had a melting point of 72 to 74 °C.

The molecule `CC1Cc2c(O)cc(C(=O)O)cc2O1` (stereo unspecified) showed a melting point of 181 to 184 °C.

Regarding `COC(=O)c1ccc(C(F)(F)F)cc1Sc1ccccc1`, the melting point was in the range of 55 to 60 °C.

In turn, `CCCCCCNc1nc(SC)[nH]c2nccc1-2` came in with a melting point of 118 °C.

The molecule `COc1cc(C#CCO)cc2c(O)c(C(=O)NCc3ccc(Cl)cc3)cnc12` came in with a melting point of 207 to 208 °C.

Molecule `CCCOc1ncc(I)cc1C(=O)Nc1c(CC)nn(CCN2CCOCC2)c1C(N)=O` came in with a melting point of 180 °C.

For the molecule `COc1ccc(C2=NN(c3ccc(CCO)cc3)C(=O)[C@H]3CC=CC[C@@H]23)cc1OC` (relative stereo), the melting point lay within 137 to 139 °C.

The molecule `CCOC1CC2(C)C(CCC3C4CCC(=O)C4(C)CC(N)C32)CC1O` (stereo unspecified) registered a melting point of 144 to 148 °C.

Take `Nc1c(-c2ccc(-c3ccccc3)cc2)nc2ccc(Cl)cc2c1C(=O)O`: the melting point lay within 244 to 245 °C.

`ON=C1CCC2(O)C3Cc4ccc(O)c5c4C2(CCN3CC2CC2)C1O5` (stereo unspecified) showed a melting point of 235 to 236 °C.

For the molecule `CCc1cc2[nH]c(=O)c(-c3ccccc3)cc2c(CC)n1`, the melting point is more than 260 °C.

`CC(=O)N1CCc2c(c3cccc4c3n2CCS4)C1` displayed a melting point of 161 to 163 °C.

Source of the values: a melting point compilation (Tetko et al.; mined from patent text by program, amines drawn as free bases though some values may be those of a salt).
